Source: US20230039766A1, “COMBINATION THERAPY” (TURBINE SIMULATED CELL TECHNOLOGIES LTD, priority 2019, published 2023)

Tests used:
BT474 cell line = test: CellTiter-Glo cell viability assay with Bliss synergy, BT474 cells; type: cell-based
NCIH1975 cell line = test: CellTiter-Glo cell viability assay with Bliss synergy, NCIH1975 cells; type: cell-based

Q: `O=c1[nH]c(=S)[nH]c(N=Cc2ccccc2)c1N=Cc1ccccc1` [SCR7] was tested. Which Viability/εij (BT474 cell line; SCR7 60 μM monotherapy) did it give?
A: 0.653

Q: For `O=C(c1cc(Cc2n[nH]c(=O)c3ccccc23)ccc1F)N1CCN(C(=O)C2CC2)CC1` [Olaparib], which Viability/εij (NCIH1975 cell line; Olaparib 6.67 μM monotherapy) is on record?
A: 0.678

Q: And the Viability/εij (BT474 cell line; Olaparib 6.67 μM monotherapy)?
A: 0.825

Q: `Cn1ncnc1[C@H]1c2n[nH]c(=O)c3cc(F)cc(c23)N[C@@H]1c1ccc(F)cc1` [Talazoparib] was tested. Which Viability/εij (NCIH1975 cell line; Talazoparib 0.25 μM monotherapy) did it give?
A: 0.597
